Laboratory results taken from patent US12577241B2, “Polycyclic pyridopyrazine derivative” (Shionogi & Co., Ltd., priority 2019, dated 2026).
pEC50: −log10 of the molar value.

Columns and labels:
HIV [1] = test: Test Example 1: Anti-HIV activity (MT-4 cells, CellTiter-Glo); assay type: cell-based; settings: Human immunodeficiency virus 1, MT4, 96 h, 4 days culture, CellTiter-Glo luminescence, read-out: EC50 (50% HIV inhibitory concentration)
Procedure: Test Example 1: Anti-HIV Activity
Serial dilutions of a test sample were prepared in a 384-well microplate by a dispensing machine. 6.25×10^4 cells/mL of a MT-4 cell suspension was dispensed at 20 μL/well to the plate containing the test sample. Then, an HIV virus solution was dispensed at 20 μL/well. The plate was mixed with a plate mixer and cultured for 4 days in a CO2 incubator. On day 4 of culture, CellTiter-Glo or CellTiter-Glo 2.0 was dispensed at 20 μL/well. The plate was reacted while being stirred with the plate mixer at room temperature for about 15 minutes. The amount of luminescence of the plate after the reaction was measured with a microplate reader. A 50% HIV inhibitory concentration (EC50) was determined from a concentration-dependent curve using the following 4 parameter logistic curve fitting model. y=A+((B−A)/(1+((C/x)^D))) • A=minimum rate of inhibition (negative control, 0%) • B=maximum rate of inhibition (positive control, 100%) • C=compound concentration at an inflection point • D=slope coefficient • x=compound concentration • y=rate of inhibition (%) (Results)

[2] = Test Example 7: Metabolism stability test; assay type: in vitro ADME; settings: human liver microsomes 0.5 mg protein/mL, 30 minutes, 37° C., NADPH, compound concentration 0.5 μmol/L
Procedure: Test Example 7: Metabolism Stability Test Commercially available pooled human liver microsomes were reacted with the compound of the present invention for a given time. A residual rate was calculated by the comparison between the reacted sample and an unreacted sample to evaluate the degree at which the compound of the present invention was metabolized in the liver. The compound was reacted at 37° C. for 0 minutes or 30 minutes in the presence of 1 mmol/L NADPH in 0.2 mL of a buffer solution (50 mmol/L Tris-HCl pH 7.4, 150 mmol/L potassium chloride, and 10 mmol/L magnesium chloride) containing 0.5 mg protein/mL of the human liver microsomes (oxidative reaction). After the reaction, 50 μL of the reaction solution was added to 100 μL of a solution of methanol/acetonitrile=1/1 (v/v), and the mixture was mixed and centrifuged at 3000 rpm for 15 minutes. The compound of the present invention in the centrifugation supernatant was quantified by LC/MS/MS or solid-phase extraction (SPE)/MS. The amount of the compound of the present invention remaining after the reaction was calculated with the amount of the compound at 0 minutes of the reaction defined as 100%.

[3] = system: HIV mutant strains (E92Q/E138T/G140S/Q148H); test: Test Example 2: Resistance evaluation test (HeLa-CD4 cells, wild and mutant strain); assay type: cell-based; settings: 3 days
Procedure: Test Example 2: Resistance Evaluation Test
Serial dilutions of a test sample were prepared in a 96-well microplate (50 μL/well). 2.5×10^5 cells/mL of a HeLa-CD4 cell suspension was dispensed at 100 μL/well to the plate containing the test sample. Then, an HIV virus solution (wild strain and mutant strain) was dispensed at 50 μL/well. The plate was mixed with a plate mixer and cultured for 3 days in a CO2 incubator. The culture supernatant in each well was removed by suction. A cell lysis buffer was dispensed at 100 μL/well, and the plate was frozen in a freezer (−80° C.). The plate frozen in a freezer was thawed at room temperature, then mixed with a plate mixer, and centrifuged at 1,200 rpm for 5 minutes. Beta-Glo Reagent was dispensed at 20 μL/well to a 384-well microplate, 2 μL of the supernatant of each well (diluted as necessary) of the plate after centrifugation was added, and then the mixture was reacted at room temperature for about 30 minutes. The amount of luminescence of the plate after the reaction was measured with a microplate reader. A 50% HIV inhibitory concentration (EC50) was determined from a concentration-dependent curve using the following 4 parameter logistic curve fitting model. y=A+((B−A)/(1+((C/x)^D))) • A=minimum rate of inhibition (negative control, 0%) • B=maximum rate of inhibition (positive control, 100%) • C=compound concentration at an inflection point • D=slope coefficient • x=compound concentration • y=rate of inhibition (%)
The degree of resistance (fold change (FC)) of each mutant strain was calculated according to the following expression. • FC=EC50 of the mutant strain/EC50 of the wild strain (Results)

HIV [4] = test: Test Example 14: Anti-HIV activity evaluation test in presence of human serum protein; assay type: cell-based; settings: MT-4 cells; PS=4×(EC50 with 25% human serum protein/EC50 without); 100% extrapolated value
Procedure: Test Example 14: Anti-HIV Activity Evaluation Test in Presence of Human Serum Protein
Serial dilutions of a test sample were prepared in a 384-well microplate by a dispensing machine. A human serum protein solution (human serum protein concentration 50%) was dispensed at 20 μL/well to a 384-well microplate containing the test sample and left to stand still at room temperature for 1 hour. A culturing solution was dispensed at 20 μL/well to a plate for the absence of serum. 1 mL of 3.0×10^6 cells/mL of MT-4 cells and a 300 μL HIV virus solution were mixed and reacted at 37° C. for 1 hour. After the reaction, the cell suspension was centrifuged to discard the supernatant, the infected cells were dispersed in 40 mL of a culturing solution and the resultant solution was dispensed at 20 μL/well to a 384-well microplate containing the test sample and the human serum protein (human serum protein final concentration: 25%). The plate was mixed with a plate mixer and cultured for 4 days in a CO2 incubator. On day 4 of culture, CellTiter-Glo or CellTiter-Glo 2.0 was dispensed at 20 μL/well. The plate was reacted while being stirred with the plate mixer at room temperature for about 15 minutes. The amount of luminescence of the plate after the reaction was measured with a microplate reader. […]
The potency shift (PS) was calculated on the basis of the following calculation formula. […]

[5] = Test Example 6: Clearance evaluation test; assay type: in vivo, Rats; settings: plasma, 1 umol/kg, rat, intravenous 1 μmol/kg; for half-life: read-out: Elimination half-life (t½) (converted); for clearance: read-out: Total body clearance (CLtot)
From the text: Test Example 6: Clearance Evaluation Test Experimental Material and Method (1) Animals used: Rats were used. (2) Breeding conditions: The rats were allowed to freely take solid food and sterilized tap water. (3) Dose and grouping setting: A predetermined dose was intravenously administered. Groups were set as follows: Intravenous administration: 1 μmol/kg (n=2) (4) Preparation of dosing solution: The test sample was solubilized using a solvent of dimethyl sulfoxide/propylene glycol=1/1 and administered. (5) Administration method: The test sample was administered to the tail vein through a syringe with an injection needle. (6) Evaluation item: Blood was collected over time, and the concentration of the compound of the present invention in plasma was measured using LC/MS/MS. (7) Statistical analysis: Total body clearance (CLtot) and elimination half-life (t½) were calculated as to change in the concentration of the compound of the present invention in plasma by the moment analysis method.

Nav 1.5 channel = target: T1, Nav 1.5 channel (Homo sapiens, UniProt Q14524); test: Test Example 13: Nav test; assay type: cell-based; settings: HEK cells expressing Nav 1.5 channel, INa, whole cell patch clamp, relative to vehicle
T1 construct: expressed in transfected cells; host or cells: HEK cells
T1 sequence (Q14524 whole entry): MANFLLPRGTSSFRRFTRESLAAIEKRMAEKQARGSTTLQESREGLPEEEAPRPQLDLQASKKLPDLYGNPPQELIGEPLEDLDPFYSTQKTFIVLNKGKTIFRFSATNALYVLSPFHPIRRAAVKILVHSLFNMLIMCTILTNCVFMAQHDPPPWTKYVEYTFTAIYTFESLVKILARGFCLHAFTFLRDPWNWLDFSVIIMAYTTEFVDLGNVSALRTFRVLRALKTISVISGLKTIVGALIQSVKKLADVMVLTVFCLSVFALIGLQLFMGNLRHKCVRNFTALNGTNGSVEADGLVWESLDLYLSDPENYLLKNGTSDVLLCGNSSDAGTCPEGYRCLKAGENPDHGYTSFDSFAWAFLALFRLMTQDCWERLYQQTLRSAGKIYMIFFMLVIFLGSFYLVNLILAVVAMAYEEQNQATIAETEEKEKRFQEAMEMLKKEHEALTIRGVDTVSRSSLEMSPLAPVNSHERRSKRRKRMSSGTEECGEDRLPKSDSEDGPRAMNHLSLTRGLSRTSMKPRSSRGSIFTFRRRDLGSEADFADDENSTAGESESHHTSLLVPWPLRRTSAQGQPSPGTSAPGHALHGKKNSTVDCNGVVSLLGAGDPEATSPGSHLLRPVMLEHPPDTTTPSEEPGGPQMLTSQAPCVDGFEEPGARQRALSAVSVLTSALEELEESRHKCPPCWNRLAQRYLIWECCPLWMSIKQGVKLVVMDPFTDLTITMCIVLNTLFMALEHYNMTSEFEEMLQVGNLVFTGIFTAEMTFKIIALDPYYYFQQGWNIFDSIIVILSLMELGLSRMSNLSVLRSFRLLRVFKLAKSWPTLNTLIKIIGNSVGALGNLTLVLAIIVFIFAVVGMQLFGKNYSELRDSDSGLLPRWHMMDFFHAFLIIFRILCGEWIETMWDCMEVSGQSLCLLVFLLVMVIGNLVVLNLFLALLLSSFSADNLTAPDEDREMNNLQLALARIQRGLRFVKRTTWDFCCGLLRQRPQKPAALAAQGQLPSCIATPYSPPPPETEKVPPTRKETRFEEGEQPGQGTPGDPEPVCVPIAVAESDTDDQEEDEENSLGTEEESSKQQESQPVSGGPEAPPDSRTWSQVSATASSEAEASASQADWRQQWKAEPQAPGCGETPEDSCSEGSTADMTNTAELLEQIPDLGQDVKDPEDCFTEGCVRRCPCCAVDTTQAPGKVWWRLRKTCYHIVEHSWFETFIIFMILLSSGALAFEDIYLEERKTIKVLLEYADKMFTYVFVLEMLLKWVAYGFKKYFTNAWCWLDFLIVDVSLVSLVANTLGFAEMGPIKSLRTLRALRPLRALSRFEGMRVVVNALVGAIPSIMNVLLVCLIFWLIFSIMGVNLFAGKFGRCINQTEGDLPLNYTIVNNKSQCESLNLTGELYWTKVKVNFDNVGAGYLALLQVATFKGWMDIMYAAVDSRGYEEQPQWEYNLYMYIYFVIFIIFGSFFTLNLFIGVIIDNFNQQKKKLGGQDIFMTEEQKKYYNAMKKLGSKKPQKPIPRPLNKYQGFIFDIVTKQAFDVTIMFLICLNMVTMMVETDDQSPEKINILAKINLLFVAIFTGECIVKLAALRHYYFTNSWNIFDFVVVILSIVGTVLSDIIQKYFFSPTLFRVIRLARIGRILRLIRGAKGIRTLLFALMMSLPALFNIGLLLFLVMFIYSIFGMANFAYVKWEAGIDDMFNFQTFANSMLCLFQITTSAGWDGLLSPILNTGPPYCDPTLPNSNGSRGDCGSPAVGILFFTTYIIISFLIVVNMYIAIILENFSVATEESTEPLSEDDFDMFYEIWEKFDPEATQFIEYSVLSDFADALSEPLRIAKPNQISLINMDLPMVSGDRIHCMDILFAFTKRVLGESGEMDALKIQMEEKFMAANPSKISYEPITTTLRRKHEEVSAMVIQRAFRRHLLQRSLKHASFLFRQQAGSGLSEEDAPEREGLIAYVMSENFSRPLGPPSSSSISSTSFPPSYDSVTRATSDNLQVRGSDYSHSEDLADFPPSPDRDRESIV
From the text: Test Example 13: Nav Test
For the purpose of assessing proarrhythmic risk of the compound of the present invention, effects of the compound of the present invention on Na^+ current (INa), which plays an important role in the myocardial depolarization process, was studied using HEK cells expressing Voltage gated sodium channel (Nav 1.5 channel) encoded by SCNSA gene.
After a cell was retained at a membrane potential of −100 mV by the whole cell patch clamp method using an automated patch clamp system (QPatch; Sophion Bioscience A/S), INa induced by depolarization pulse stimulation at −10 mV for 20 milliseconds was recorded. An extracellular fluid (NaCl: 145 mmol/L, KCl 4 mmol/L, CaCl2: 2 mmol/L, MgCl2: 1 mmol/L, glucose: 10 mmol/L, HEPES (4-(2-hydroxyethyl)-1-piperazineethanesulfonic acid): 10 mmol/L, tetraethylammonium hydroxide (TEA): 10 mmol/L, pH=7.4) adjusted to 0.3% with dimethyl sulfoxide was used as a vehicle to apply the vehicle and the extracellular fluid containing the compound of the present invention dissolved at a concentration of interest to the cells under conditions of room temperature for 5 minutes or longer. From the obtained INa, the absolute value of the maximum peak current based on the current value at the membrane potential where the cells have been kept was measured using analytical software (QPatch Assay software; Sophion Bioscience A/S). The ratio of the maximum peak current at the time of applying the compound of the present invention to the maximum peak current at the time of applying the vehicle and the electric charge amount at the time of applying the compound of the present invention with respect to the electric charge amount at the time of applying vehicle were calculated, and the influence of the compound of the present invention on INa was evaluated.

CYP3A4 = target: T2, CYP3A4 (Homo sapiens, UniProt P08684); test: Test Example 4: CYP3A4 (MDZ) MBI test; assay type: in vitro ADME; settings: pooled human liver microsomes, midazolam 1-hydroxylation, IC 0 min preincubation/IC 30-min preincubation
T2 construct: pooled human liver microsomes, 0.5 mg/mL for the prereaction; from tissue; host or cells: pooled human liver microsomes
T2 sequence (P08684 whole entry): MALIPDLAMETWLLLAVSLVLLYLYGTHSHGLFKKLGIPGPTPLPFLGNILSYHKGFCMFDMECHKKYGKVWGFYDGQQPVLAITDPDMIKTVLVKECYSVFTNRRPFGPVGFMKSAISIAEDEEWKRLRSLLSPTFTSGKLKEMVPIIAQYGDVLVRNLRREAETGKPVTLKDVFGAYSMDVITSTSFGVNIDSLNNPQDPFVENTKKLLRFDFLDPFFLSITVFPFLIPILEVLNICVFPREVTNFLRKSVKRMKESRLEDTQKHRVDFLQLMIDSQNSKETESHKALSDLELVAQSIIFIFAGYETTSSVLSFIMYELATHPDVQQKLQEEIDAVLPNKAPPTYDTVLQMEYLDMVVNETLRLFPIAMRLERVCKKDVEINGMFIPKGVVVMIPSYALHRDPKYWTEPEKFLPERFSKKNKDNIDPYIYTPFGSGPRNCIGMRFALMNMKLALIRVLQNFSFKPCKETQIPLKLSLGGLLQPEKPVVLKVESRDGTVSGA
Procedure: Test Example 4: CYP3A4 (MDZ) MBI Test
This test as to the inhibition of CYP3A4 by the compound of the present invention is to evaluate mechanism based inhibition (MBI) ability from enhancement in inhibitory effect, caused by a metabolism reaction, of the compound of the present invention. CYP3A4 inhibition was evaluated using pooled human liver microsomes by 1-hydroxylation reaction of midazolam (MDZ) as a marker reaction. […]
The pooled human liver microsomes and a solution of the compound of the present invention were added according to the recipe of the prereaction described above into a K-Pi buffer solution (pH 7.4) as a prereaction solution in a 96-well plate. […] After centrifuged at 3000 rpm for 15 minutes, 1-hydroxymidazolam in the supernatant was quantified by LC/MS/MS.
Only a solvent DMSO used for dissolving the compound was added to the reaction solution instead of the compound of the present invention, and the mixture was used as a control (100%). Remaining activity (%) at the time of the addition of the compound of the present invention at each concentration was calculated, and IC was calculated by inverse estimation based on a logistic model using the concentrations and the rates of suppression. A shifted IC value is calculated from IC from the 0 min preincubation/IC from the 30-min preincubation. […]

| SMILES | pEC50 (HIV [1]) | Remaining rate [2] | FC (fold change, degree of resistance) = EC50 of the mutant strain/EC50 of the wild strain [3] | Potency shift (PS) in the presence of human serum protein (HIV [4]) | half-life [5] | clearance [5] | electric charge amount increase rate (Nav 1.5 channel) | maximum current amount increase rate (Nav 1.5 channel) | Shifted IC grade (mechanism based inhibition) (CYP3A4) |
| --- | --- | --- | --- | --- | --- | --- | --- | --- | --- |
| CCN1C(=O)c2c(O)c(=O)c(C(=O)NCc3nccc(Cl)c3F)cn2[C@H]2CCCC[C@H]21 [Compound I-003] | 8.41 | 91.7% | – | – | – | – | – | – | – |
| CCN1C(=O)c2c(O)c(=O)c(-c3nnc(Cc4ccc(F)cc4F)s3)cn2[C@H]2CCC[C@H]21 [Compound I-020] | 8.30 | 74.6% | 7.7 | 29 | – | – | – | – | – |
| CCN1C(=O)c2c(O)c(=O)c(-c3nnc(Cc4ccc(F)cc4F)s3)cn2[C@H]2CCCC[C@H]21 [Compound I-017] | 8.38 | – | 6.0 | – | 15.3 h | 4.27 mL/h/kg | 133% | 95.6% | – |
| CCN1C(=O)c2c(O)c(=O)c(C(=O)NCc3cccc(Cl)c3F)cn2[C@@H]2[C@H]1CCCC2(F)F [Compound I-005] | 9.00 | – | 6.7 | 104 | 10.9 h | 7.02 mL/h/kg | – | – | – |
| CCN1C(=O)c2c(O)c(=O)c(-c3nnc(Cc4ccc(F)cc4F)s3)cn2[C@@H]2[C@H]1CCCC2(F)F [Compound I-022] | 8.28 | – | – | – | – | – | 137% | 93.1% | (−) (shifted IC of 1.0 or less is graded as negative (−)) |
